The results in this text go back to ChEMBL document CHEMBL1153659, “Target directed enediyne prodrugs: hER and AhR degradation by a synthetic oxo-enediyne” (1996).

By inhibition is commonly meant the share of the control response that was lost under treatment. A high value points to a response far below the control.

This test concerns T47D. Briefly: Compound was tested for growth inhibition against T-47D-Y cells at 10e-4 M. Particulars: Homo sapiens. In kind it is functional.

Regarding `C1#CCO[C@H]2CCCC[C@@H]2C#C/C=C\1`, the inhibition at 100 µM was determined as 83%.
